Test results from US20060093596A1, “Genomic approach to identification of novel broad-spectrum antimicrobial peptides from bony fish” (priority 2002, published 2006).
“Also recorded” adds a separate entry of the source. Where no end group is shown, it is not given here.

Experiments:
[1] = system: Aeromonas salmonicida 99-1, A449
Description: (§2) Most non-fish bacterial strains as well as Candida albicans were grown at 37° C. in Mueller-Hinton Broth (MHB; Difco Laboratories, Detroit), while the fish bacteria were maintained at 16° C. in Tryptic Soy Broth (TSB; Difco, 5g/l NaCl).
(§3) Two field isolates of the salmonid pathogen Aeromonas salmonicida are from the IMB strain collection.
(§4) The activities of the antimicrobial peptides were determined as minimal inhibitory concentrations (MICs) using the microtitre broth dilution method of Amsterdam (Amsterdam, 1996), as modified by Wu and Hancock (1999). Serial dilutions of the peptide were made in water in 96-well polypropylene (Costar, Coming Incorporated, Coming, New York) microtiter plates. Bacteria or C. albicans were grown overnight to mid-logarithmic phase as described above, and diluted to give a final inoculum size of 10^6 cfu/ml. A suspension of bacteria or yeast was added to each well of a 96 well plate and incubated overnight at the appropriate temperature. […] Three repeats of each MIC determination were performed.

[2] = system: Aeromonas salmonicida 97-4
Description: as §2, §3, §4

[3] = system: Pseudomonas aeruginosa K799 (H187); assay type: cell-based; settings: text statement to FIG. 25
Description: (§5) Most non-fish bacterial strains as well as Candida albicans were grown at 37° C. in Mueller-Hinton Broth (MHB; Difco Laboratories, Detroit), while the fish bacteria were maintained at 16° C. in Tryptic Soy Broth (TSB; Difco, 5g/l NaCl). All strains were stored at −70° C. until they were thawed for use and sub-cultured daily. The following strains, Pseudomonas aeruginosa K799 (parent of Z61), Pseudomonas aeruginosa Z61 (antibiotic supersusceptible), Salmonella typhimurium 14028s (parent of MS7953s), Salmonella typhimurium MS7953s (defensin supersusceptible), as well as Staphylococcus epidermidis (human clinical isolates) and methicillin-resistant Staphylococcus aureus (MRSA; isolated by Dr. A. Chow, University of British Columbia) have been kindly donated by Prof R. E. W. Hancock, University of British Columbia.
as §4

[4] = system: methicillin-resistant Staphylococcus aureus (MRSA) C623, SAP017
Description: as §5, §4

[5] = system: bacterial pathogens and C. albicans; assay: Spectrum of antimicrobial activity (MIC panel, overall); assay type: cell-based; settings: summary of MIC results against bacteria and C. albicans
Description: Three repeats of each MIC determination were performed.
The minimal inhibitory concentrations of the chemically produced peptides against a wide range of baterial pathogens and C. albicans were determined and are shown in Table 9.

[6] = system: Salmonella enterica s. Typhimurium MS4252S (C610, supersusceptible strain); assay type: cell-based; settings: lowest peptide concentration inhibiting growth by at least 50%; Mueller-Hinton broth
Description: as §5, §4

Pseudomonas aeruginosa = assay: Killing assay (survival at MIC and ten times MIC); assay type: cell-based
Description: (§1) Survival of bacteria and C. albicans upon exposure to selected peptides applied at their minimal inhibitory concentrations (MICs) and ten times their MICs was measured using standard methodology. The test organisms were grown in MHB and exposed to the peptides. At the specified time intervals equal aliquots were removed from the cultures, plated on MHB plates, and the resulting colonies were counted. Percentage survival was plotted against time on a logarithmic scale. Two repeats of each experiment were performed.
FIG. 14 describes Survival of a Gram-negative bacterium (Pseudomonas aeruginosa) upon exposure to NRC-13 at its minimal inhibitory concentration (MIC) and ten times its MIC. P. aeruginosa was grown in Mueller-Hinton broth and exposed to NRC-13 at its MIC and ten times its MIC. At the specified intervals equal aliquots were removed from the culture, plated on MHB plates, and the resulting colonies were counted.

[7] = system: Escherichia coli UB1005 (C498); assay type: cell-based; settings: lowest peptide concentration inhibiting growth by at least 50%; Mueller-Hinton broth
Description: as §5, §4

[8] = system: Candida albicans C627, CALB105
Description: as §5, §4

[9] = system: Pseudomonas aeruginosa Z61 (H188, supersusceptible strain); assay type: cell-based
Description: as §5, §4

[10] = system: Escherichia coli C786, CGSC4908; assay type: cell-based; settings: lowest peptide concentration inhibiting growth by at least 50%; supplemented Mueller-Hinton broth
Description: All strains were stored at −70° C. until they were thawed for use and sub-cultured daily.
Escherichia coli strain CGSC 4908 (his-67, thyA43, pyr-37), auxotrophic for thymidine, uridine, and L-histidine (Cohen et al., 1963) was kindly supplied, free of charge, by the E.coli Genetic Stock Centre (Yale University, New Haven, Conn.). MHB supplemented with 5 mg/L thymidine, 10 mg/L uridine and 20 mg/L L-histidine (Sigma Chemical Co., St. Louis, Mo.), was used to grow E.coli CGSC 4908 unless otherwise specified.
The activities of the antimicrobial peptides were determined as minimal inhibitory concentrations (MICs) using the microtitre broth dilution method of Amsterdam (Amsterdam, 1996), as modified by Wu and Hancock (1999). Serial dilutions of the peptide were made in water in 96-well polypropylene (Costar, Coming Incorporated, Coming, New York) microtiter plates. Bacteria or C. albicans were grown overnight to mid-logarithmic phase as described above, and diluted to give a final inoculum size of 10^6 cfu/ml. A suspension of bacteria or yeast was added to each well of a 96 well plate and incubated overnight at the appropriate temperature. In the case of E. coli CGSC 4908, supplemented MHB was used. […] Three repeats of each MIC determination were performed.

[11] = system: Escherichia coli DC2 (C500, outer membrane-permeable mutant); assay type: cell-based; settings: lowest peptide concentration inhibiting growth by at least 50%; Mueller-Hinton broth
Description: as §5, §4

P. aeruginosa K799 = assay: Killing assay in culture supplemented with NaCl; assay type: cell-based, Pseudomonas aeruginosa; settings: culture supplemented with 150 mM NaCl; 4 μg/ml (MIC) or 40 μg/ml (10×MIC); FIG. 25
Description: as §1
Peptides of the invention can be used at a range of pH's, salt concentrations, and temperatures. These peptides are useful against pathogens grown in biofilms or under any other conditions for pathogen growth or culture. See for example FIG. 25 in which the ability of NRC-13 to kill P. aeruginosa K799 in […] is shown. NRC-13 was added to a culture of P. aeruginosa supplemented with 150 mM NaCl to a final concentration of 4 μg/ml (□) or 40 μg/ml (Δ), representing the MIC and 10×MIC, respectively. A control with no peptide added is also shown (♦).

[12] = system: Staphylococcus epidermidis C621 (clinical isolate)
Description: as §5, §4

[13] = system: Salmonella enterica s. Typhimurium 14028S (C587); assay type: cell-based; settings: lowest peptide concentration inhibiting growth by at least 50%; Mueller-Hinton broth
Description: as §5, §4

Vibrio anguillarum = settings: Coho salmon; Jia et al. 2000; cited from earlier work

GWRTLLKKAEVKTVGKLALKHYL-NH2 [NRC-13]
Minimal inhibitory concentration, A. sal 99-1 [1]: 4 µg/mL | Minimal inhibitory concentration, A. sal 97-4 [2]: 2 µg/mL | concentration inhibiting the growth of A. salmonicida ([2]; strain not stated, value matches 97-4 of Table 8): 2 µg/mL | MIC against P. aeruginosa K799 [3]: 4 µg/mL | concentration inhibiting the growth of methicillin-resistant S. aureus [4]: 4 µg/mL | Minimal inhibitory concentration, MRSA C623 ([4]; methicillin-resistant C623, SAP017): 4 µg/mL | antimicrobial activity, overall (in words) [5]: broad spectrum of antimicrobial activity; also recorded: highly active | Minimal inhibitory concentration, S. typh MS4252s [6]: 2 µg/mL | ability to kill P. aeruginosa (Pseudomonas aeruginosa; at MIC and ten times MIC, Mueller-Hinton broth, FIG. 14): ability to kill | concentration killing P. aeruginosa (Pseudomonas aeruginosa; strain not stated): 1 µg/mL | Minimal inhibitory concentration, E. coli UB1005 [7]: 4 µg/mL | concentration inhibiting the growth of C. albicans [8]: 4 µg/mL | Minimal inhibitory concentration, C. alb C627 ([8]; C627, CALB105): 4 µg/mL | Minimal inhibitory concentration, P. aeru Z61 ([9]; lowest peptide concentration inhibiting growth by at least 50%, Mueller-Hinton broth): 1 µg/mL | concentration inhibiting the growth of P. aeruginosa ([9]; strain not stated, value matches Z61 of Table 8): 1 µg/mL | Minimal inhibitory concentration, E. coli C786 [10]: 2 µg/mL | Minimal inhibitory concentration, E. coli DC2 [11]: 2 µg/mL | ability to kill P. aeruginosa K799 in NaCl (P. aeruginosa K799): kill | Minimal inhibitory concentration, S. epi C621 [12]: 4 µg/mL | Minimal inhibitory concentration, S. typh 14028s [13]: 8 µg/mL

pleurocidin (GWGSFFKKAAHVGKHVGKAALTHYL-NH2; UniProt P81941 23-47, looked up) [Synthetic pleurocidin, Synthetic pleurocidin identical to the central portion of WF2 (Jia et al. 2000)]
protection against infection by Vibrio anguillarum (Vibrio anguillarum): protect Coho salmon against infection
